Measured values taken from US20060083784A1, “Amorphous pharmaceutical compositions” (SmithKline Beecham Corporation, priority 2002, published 2006).
Where “and” joins values, the source holds several entries; their conditions need not be identical. Equal entries are not always repeated.

Legend:
[1] = In vitro dissolution assay (modified USP 4 flow cell), Compound I samples; assay type: physicochemical; details: water and acetonitrile (8:2), 37° C., UV 275 nm, hemihydrate
Method: (§1) The equipment used for this procedure is a modified USP 4, the major differences being: 1. low volume cell. 2. stirred cell. 3. retaining filters which are adequate at retaining sub micron material. The total run time is 40 minutes. 2.5 mg of drug (weigh proportionally more formulated material).
(§2) Flow Cell Description: Swinnex filter assemblies obtained from Millipore, having 0.2 micron Cellulose Nitrate membranes. (Millipore, Mass.) as internal filters. The internal volume of the cell is approximately 2 ml. A Small PTFE stirrer customized to fit the Swinnex assembly (Radleys Lab Equipment Halfround Spinvane F37136) is used. The dissolution medium at a flow rate of 5 ml/min is used. The whole set up is placed at a thermostat of 37° C. The drug concentration is measured by passing the eluent through a UV detector having a flow cell dimension of 10 mm. The UV detection is carried out at an appropriate wavelength for the drug.
(§3) The experimentation is designed to evaluate drug dissolution rate. As such it is unlikely with poorly soluble drugs, and with water as the dissolution medium, that 100% of the drug will dissolve in the 40 minute duration of the test. To determine the extent of drug solubility over this period one collects all 200 ml of solution that elutes from the dissolution cell.
In vitro dissolution rates of samples 1.1, 1.2 and 1.3 were determined using the protocol described in the experimental section. The dissolution medium was a mixture of water and acetonitrile (8:2), and the wavelength used for drug detection 275 nm.

[2] = In vitro dissolution assay (modified USP 4 flow cell), Compound II samples; assay type: physicochemical; details: 0.1M HCl, 37° C., UV 244 nm
Method: as §1, §2
as §3, with “cell. Using a conventional UV spectrophotometer, this solution is compared against a reference solution of 2.5 or 4 mg of active agent dissolved in a suitable medium.” for “cell.”
In vitro dissolution rates of samples 2.1, 2.2, 2.3, 2.4, 2.5 and 2.6 were determined using the protocol described in the experimental section. The dissolution medium was 0.1M HCl, and the wavelength used for drug detection 244 nm. An unmilled lot of Compound II was used for comparison.

% Drug Dissolved 10 min ([2]; 10 min) [%]	% Drug Dissolved 20 min ([2]; 20 min) [%]	% Drug Dissolved 30 min ([2]; 30 min) [%]	% Drug Dissolved 40 min ([2]; 40 min) [%]	Compound	% Drug Dissolved 10 min ([1]; 10 min)	% Drug Dissolved 20 min ([1]; 20 min)	% Drug Dissolved 30 min ([1]; 30 min)	% Drug Dissolved 40 min ([1]; 40 min)
				6-Acetyl-3,4-dihydro-2,2-dimethyl-trans(+)-4-(4-fluorobenzoylamino)-2H-benzo[b]pyran-3-ol hemihydrate [Compound I]	17.4% and 12.1%	24.3% and 18.2%	29.4% and 23.2%	33.8% and 27.8%
3.8	6.3	8.5	10.7	CC[C@H](NC(=O)c1c(O)c(-c2ccccc2)nc2ccccc12)c1ccccc1.Cl [Compound II, 3-Hydroxy-2-phenyl-N-[(1S)-1-phenylpropyl]-4-quinolinecarboxamide monohydrochloride]				
